According to US6280768A, “Berberine alkaloids as a treatment for chronic protozoally induced diarrhea” (PRM Pharmaceuticals, Inc., priority 1997, dated 2001):
Where two headings read alike, the source gives them in different places.

How the values were obtained:
G.lamblia = assay: In vitro growth inhibition of Giardia lamblia; assay type: cell-based; details: Giardia duodenalis; for activity at 30 µg/mL / activity at 62 µg/mL / activity at 125 µg/mL / activity at 250 µg/mL / activity at 500 µg/mL / activity at 1000 µg/mL: 48 h; for activity at 30 µg/mL: 30 μg/ml; for activity at 62 µg/mL: 62 μg/ml; for activity at 125 µg/mL: 125 μg/ml; for activity at 250 µg/mL: 250 μg/ml; for activity at 500 µg/mL: 500 μg/ml; for activity at 1000 µg/mL: 1000 μg/ml
Source text: (§1) The protozoa tested were established strains of 3 extracellular protozoan parasites; (1) Giardia lamblia, (2) Trichomonas vaginalis, (3) Entamoeba histolytica, and the intracellular microsporidian parasite (4) Encephalitozoon intestinalis.
(§2) Culture conditions and media for (1)-(3) and methods for assaying drug susceptibility were as described in Katiyar, S K and Edlind T D, Enhanced Antiparasitic Activity of Lipophilic Tetracyclines: Role of Uptake, Antimicrob. Agents Chemother., vol. 35:2198-2202 (1991), incorporated herein by reference.
(§3) Cultures of the extracellular parasites were started from frozen stocks and passaged several times over a 2-3 week period to ensure viability, maximal growth rate, and lack of contamination. On day 1 of the assay, log phase cultures were diluted to 5×10^4 cells/ml in fresh medium and aliquoted to 2 ml vials, which were filled to maintain anaerobic conditions. The berberine was dissolved and diluted in water to various concentrations and then added to the cultures. "negative controls" received the vehicle alone.
(§4) Cultures were incubated at 37° C. with slow rotation. After 48 hours (for T. vaginalis and G. lamblia) and 72 hours (for E. histolytica), cell numbers were determined using a hemocytometer. The concentration of compound inhibiting growth 50% (IC50) relative to controls was estimated from dose response plots. The assays were repeated at least twice.
(§5) Initially, the berberine was tested over a wide range of concentrations (0.1, 1, 10, 100 and 1000 μg/ml).

E.histolytica = assay: In vitro growth inhibition of Entamoeba histolytica; assay type: cell-based; details: for activity at 30 µg/mL: 30 μg/ml; for activity at 125 µg/mL: 125 μg/ml; for activity at 500 µg/mL: 500 μg/ml; for activity at 1000 µg/mL: 1000 μg/ml
Source text: as §1, §2, §3, §4, §5

E. intestinalis = assay: In vitro growth (spore numbers) of E. intestinalis in infected Vero cells; assay type: cell-based, Encephalitozoon intestinalis
Source text: as §1
Cultures of E. intestinalis infected African green monkey kidney (Vero) cells were kindly provided by G. S. Visvesvara, CDC, Atlanta, Ga. The E. intestinalis was originally isolated from the urine of an AIDS patient (J. Clin. Microbiol. 33:930-936, 1995).
Cells were grown in T25 flasks at 37° C. in a humidified CO2 incubator, and subcultured when confluent (every 3-4 days). The medium was MEM supplemented with Earle's salts, L-glutamine, 5% heat-inactivated fetal bovine serum, fungizone (2 μg/ml) and gentamicin (50 μg/ml). E. intestinalis spores were prepared by centrifugation of infected cell medium (3-4 days old) at 2000×g for 15 min, followed by suspension in fresh medium to give 1-20×10^4 spores/ml (determined with a hemocytometer). […]
Every 72-96 h after infection, the medium was completely removed, discarded, and replaced with fresh medium plus berberine. The medium from the 4th change (2-3 weeks post infection) was collected into tubes and spore numbers were determined in a hemocytometer. […] Consequently, spore numbers after 3-4 medium changes provided a quantitative measure of the effects of berberine on microsporidia growth.

T.vaginalis = assay: In vitro growth inhibition of Trichomonas vaginalis; assay type: cell-based; details: for activity at 30 µg/mL / activity at 62 µg/mL / activity at 125 µg/mL / activity at 250 µg/mL / activity at 500 µg/mL / activity at 1000 µg/mL: 48 h; for activity at 30 µg/mL: 30 μg/ml; for activity at 62 µg/mL: 62 μg/ml; for activity at 125 µg/mL: 125 μg/ml; for activity at 250 µg/mL: 250 μg/ml; for activity at 500 µg/mL: 500 μg/ml
Source text: as §1, §2, §3, §4, §5

microsporidia [1] = assay: Protoberberines in a hamster animal model of microsporidial chronic diarrhea (Example 5); assay type: in vivo; details: 52 mg/kg/day oral; for condition of the hamsters / diarrhea: after 10 days; for presence of microsporidia in intestinal biopsy: following therapy
Experimental: (§6) Ten hamsters suffering from chronic diarrhea caused by microsporidia are randomized into two groups of 5 hamsters. One group receives the protoberberine palmatine and the second group receives the protoberberine dihydroberberine. The protoberberines are administered orally at a dose rate of 52 mg/kg/day for ten (10) days.

microsporidia [2] = assay: Protoberberines in a mouse animal model of microsporidial chronic diarrhea (Example 6); assay type: in vivo; details: 52 mg/kg/day oral; for condition of the mice / diarrhea: after 10 days; for presence of microsporidia in intestinal biopsy: following therapy
Experimental: as §6, with “mice” for “hamsters”, “mice.” for “hamsters.”, “jatrorrhizine.” for “dihydroberberine.”

[3] = oral, high doses; cited from earlier work
diarrhea = assay: Prophylactic use of berberines in HIV infected patients (Example 7); assay type: in vivo, human; details: low dose of Example 2, two months, 25 patients
Experimental: Twenty five (25) HIV infected patients, 18 years of age or older, not presenting with chronic diarrhea, are selected. Blood specimens are evaluated to confirm that each patient is HIV seropositive.
Each of the twenty five (25) patients receives a treatment with berberine according to the low dose of Example 2 for a period of two months.

Cryptosporidium parvum = details: in vivo; cited from earlier work
cryptosporidia = details: cited from earlier work
[4] = growth, 48 hours, estimated from dose response plots

## COc1ccc2cc3[n+](cc2c1OC)CCc1cc2c(cc1-3)OCO2.Cl [berberine hydrochloride, 5,6-Dihydro-9,10-dimethoxybenzo[g]-1,3-benzodioxolo[5,6-a]quinolizinium hydrochloride]
G.lamblia; Exp. 1
  activity at 30 µg/mL: 99%
  activity at 62 µg/mL: 89%
  activity at 125 µg/mL: 79%
  activity at 250 µg/mL: 63%
  activity at 500 µg/mL: 40%
  activity at 1000 µg/mL: 9%
G.lamblia; Exp. 2
  activity at 30 µg/mL: 97%
  activity at 62 µg/mL: 85%
  activity at 125 µg/mL: 69%
  activity at 250 µg/mL: 59%
  activity at 500 µg/mL: 44%
  activity at 1000 µg/mL: 20%
G.lamblia; Exp. 3
  activity at 62 µg/mL: 88%
  activity at 125 µg/mL: 75%
  activity at 250 µg/mL: 52%
  activity at 500 µg/mL: 32%
  activity at 1000 µg/mL: 5%
G.lamblia; [4]
  IC50: 350 µg/mL
E.histolytica; 72 h, Exp. 1
  activity at 30 µg/mL: 102%
  activity at 125 µg/mL: 100%
  activity at 500 µg/mL: 100%
  activity at 1000 µg/mL: 72%
E.histolytica; 72 h, Exp. 2
  activity at 30 µg/mL: 101%
  activity at 125 µg/mL: 101%
  activity at 500 µg/mL: 96%
  activity at 1000 µg/mL: 76%
E.histolytica; 72 h, 62 μg/ml, Exp. 2
  activity at 62 µg/mL: 90%
E.histolytica; 72 h, 250 μg/ml, Exp. 2
  activity at 250 µg/mL: 101%
E.histolytica; growth, 72 hours, estimated from dose response plots
  IC50: > 1000 µg/mL
E. intestinalis
  activity against the microsporidium E. intestinalis: showed activity against the microsporidium E. intestinalis
T.vaginalis; Exp. 1
  activity at 30 µg/mL: 93%
  activity at 62 µg/mL: 90%
  activity at 125 µg/mL: 59%
  activity at 250 µg/mL: 20%
  activity at 500 µg/mL: 2%
T.vaginalis; Exp. 2
  activity at 30 µg/mL: 99%
  activity at 62 µg/mL: 98%
  activity at 125 µg/mL: 60%
  activity at 250 µg/mL: 28%
  activity at 500 µg/mL: 3%
T.vaginalis; Exp. 3
  activity at 30 µg/mL: 96%
  activity at 62 µg/mL: 98%
  activity at 125 µg/mL: 60%
  activity at 250 µg/mL: 45%
  activity at 500 µg/mL: 22%
T.vaginalis; 1000 μg/ml, Exp. 1, read-out: % growth
  activity at 1000 µg/mL: 1%
T.vaginalis; 1000 μg/ml, Exp. 2, read-out: % growth
  activity at 1000 µg/mL: 1%
T.vaginalis; read-out: % growth, 1000 μg/ml, Exp. 3
  activity at 1000 µg/mL: 6.8%
T.vaginalis; [4]
  IC50: 170 µg/mL

## COc1ccc2c(c1OC)CN1CCc3cc4c(cc3C1=C2)OCO4 [dihydroberberine]
Microsporidia [1]
  condition of the hamsters: improved
  diarrhea: none of the hamsters have diarrhea
  presence of microsporidia in intestinal biopsy: does not reveal the presence of microsporidia

## COc1cc2c(cc1O)CC[n+]1cc3c(OC)c(OC)ccc3cc1-2 [jatrorrhizine]
Microsporidia [2]
  condition of the mice: improved
  diarrhea: none of the mice have diarrhea
  presence of microsporidia in intestinal biopsy: does not reveal the presence of microsporidia

## COc1cc2c(cc1OC)-c1cc3ccc(OC)c(OC)c3c[n+]1CC2 [palmatine]
Microsporidia [2]
  condition of the mice: improved
  diarrhea: none of the mice have diarrhea
  presence of microsporidia in intestinal biopsy: does not reveal the presence of microsporidia
Microsporidia [1]
  condition of the hamsters: improved
  diarrhea: none of the hamsters have diarrhea
  presence of microsporidia in intestinal biopsy: does not reveal the presence of microsporidia

## COc1ccc2cc3[n+](cc2c1OC)CCc1cc2c(cc1-3)OCO2 [berberine, 5,6-Dihydro-9,10-dimethoxybenzo[g]-1,3-benzodioxolo[5,6-a]quinolizinium]
[3]
  toxicity: nontoxic at high doses
diarrhea
  tolerability / adverse reactions: all of the patients tolerate the treatment well with no or minimal adverse reactions

## NC[C@@H]1O[C@H](O[C@H]2[C@@H](O)[C@H](O[C@@H]3[C@@H](O)[C@H](N)C[C@H](N)[C@H]3O[C@H]3O[C@H](CO)[C@@H](O)[C@H](O)[C@H]3N)O[C@@H]2CO)[C@H](N)[C@@H](O)[C@@H]1O [paromomycin]
Cryptosporidium parvum
  relapse after cessation of treatment: common

## C[C@@H](O)[C@@H]1NC(=O)[C@H](CCCCN)NC(=O)[C@@H](Cc2c[nH]c3ccccc23)NC(=O)[C@H](Cc2ccccc2)NC(=O)[C@@H](NC(=O)[C@H](N)Cc2ccccc2)CSSC[C@@H](C(=O)N[C@H](CO)[C@@H](C)O)NC1=O [octreotide]
cryptosporidia; AIDS patients
  control of gastrointestinal secretion: control the voluminous gastrointestinal secretion
cryptosporidia; following cessation of treatment
  return of diarrhea: diarrhea promptly returns
